The results in this text go back to ChEMBL document CHEMBL5131393 (J Med Chem, 2021).

As a reminder, the CC50 is the concentration at which the toxic effect on the cells reaches its halfway point. Usually IC50 stands for the midpoint of a concentration-inhibition curve. The term EC50 denotes the concentration needed to bring the measured effect to its halfway point. A lower EC50 goes with an effect from little substance.

One assay concerns TZM. Kind of assay: Cytotoxicity against human TZM-bl cells assessed as reduction in cell viability measured after 3 days by XTT assay. In kind it is functional. The note with it: 72 h, time 3 day. In general terms: Tetrazolium dyes change colour on reduction, which living cells bring about.
In assay [1] the target is Human immunodeficiency virus type 1 reverse transcriptase (Human immunodeficiency virus 1, UniProt Q72547). Kind of assay: Inhibition of recombinant HIV-1 reverse transcriptase incubated for 2 hrs by colorimetric assay.
Assay [2] has as its system Human immunodeficiency virus 1. Kind of assay: Antiviral activity against HIV-1 pseudovirus infected in human TZM-bl cells preincubated with virus for 30 mins followed by cell infection and measured after 3 days by luciferase assay. It counts as functional, organism-based. The note with it: Human immunodeficiency virus 1, TZM-bl.
Assay [3] concerns the target Human immunodeficiency virus type 1 reverse transcriptase (Human immunodeficiency virus 1) (UniProt Q72547). Kind of assay: Potency index, ratio of test compound IC50 to NBD-14189 IC50 for inhibition of recombinant HIV-1 reverse transcriptase incubated for 2 hrs by colorimetric assay.

Take `Cc1cc(-c2ccc(C(F)(F)F)cn2)[nH]c1C(=O)N[C@H](CN)c1nc(CO)cs1`: the CC50 in the assay with TZM amounted to 85 µM. For the same molecule, in assay [1], the IC50 amounted to 5 µM.
In assay [2], `CNCc1cc(-c2ccc3c(c2)OCO3)[nH]c1C(=O)NCc1nc(S)c(CO)s1` gave an EC50 of 2.7 µM. The CC50 in the assay on TZM was found to be 95.8 µM.
In the case of `NC[C@H](NC(=O)c1ccc(-c2cc(F)c(Cl)c(F)c2)[nH]1)c1ncc(CO)s1`, the CC50 with TZM stood at 39.5 µM. Moreover, in assay [1], the IC50 was determined as 8.4 µM.
For the molecule `Cc1cc(-c2ccc(C(F)(F)F)cn2)[nH]c1C(=O)N[C@@H](CN)c1ncc(CO)s1`, the CC50 in the assay on TZM is 109 µM. Besides, the Ratio IC50 in assay [3] is 2.
Take `Cc1ccc(-c2ccc(C(=O)N[C@H](CN)c3ncc(CO)s3)[nH]2)cc1F`: in assay [2], a half-maximal response (EC50) required 0.45 µM. Also, the CC50 in the assay with TZM was found to be 38.8 µM. For the same molecule, the IC50 in assay [1] came to 7.2 µM.
Molecule `NC[C@@H](NC(=O)c1ccc(-c2ccc(Cl)c(F)c2)[nH]1)c1ncc(CO)s1` registered an EC50 in assay [2] of 0.57 µM. The CC50 in the assay with TZM worked out at 33 µM. The IC50 in assay [1] is 13.7 µM.
Regarding `Cc1nc(C(CNC2CCC2)NC(=O)c2ccc(-c3ccc(Cl)cc3)[nH]2)sc1CO` (single isomer, unassigned), in assay [2], the EC50 came out at 2.2 µM. In addition, the CC50 in the assay on TZM is 24 µM. In assay [1], the IC50 turned out to be 43.4 µM. The Ratio IC50 in assay [3] was determined as 31.
As for `Cc1sc(C(CO)NC(=O)c2[nH]c(-c3ccc4c(c3)OCO4)cc2CN)nc1S` (stereo not drawn), the midpoint of the response in assay [2], the EC50, lay at 2.3 µM. Moreover, in the assay with TZM, the CC50 was found to be 146 µM. Besides, the 50% inhibitory concentration (IC50) in assay [1] came to 30.6 µM.
With `CC1(C)CC(NC(=O)C(=O)Nc2ccc(Cl)cc2)CC(C)(C)N1`, the CC50 with TZM is 60 µM. Also, the IC50 in assay [1] was above 200 µM.
In turn, `NC[C@H](NC(=O)c1ccc(-c2ccc(C(F)(F)F)cc2)[nH]1)c1nc(CO)cs1` gave an EC50 in assay [2] of 0.089 µM. Also, in the assay with TZM, the CC50 turned out to be 21.9 µM. Also, in assay [1], the IC50 amounted to 1.5 µM.
As to `NC[C@@H](NC(=O)c1ccc(-c2ccc(C(F)(F)F)cn2)[nH]1)c1ncc(C(O)CO)s1` (stereo partly drawn), the EC50 in assay [2] is 2.1 µM. Further, the CC50 in the assay with TZM is above 113 µM.
`NCc1cc(-c2ccc3c(c2)OCO3)[nH]c1C(=O)NC(CO)c1nc(S)cs1` (stereo not drawn) yielded an EC50 in assay [2] of 4.3 µM. Moreover, the CC50 with TZM was 142 µM. In assay [1], the IC50 turned out to be 39.5 µM.
As to `Cc1nc([C@@H](CN)NC(=O)c2ccc(-c3ccc(F)c(F)c3)[nH]2)sc1CO`, the EC50 in assay [2] worked out at 3.3 µM. In addition, the CC50 with TZM amounted to 84.1 µM.
In the case of `Cc1nc([C@H](CN)NC(=O)c2ccc(-c3ccc(Cl)c(F)c3)[nH]2)sc1CO`, the CC50 in the assay on TZM came out at 40.5 µM. Besides, the IC50 in assay [1] is 8.3 µM.
The molecule `NC[C@H](NC(=O)c1ccc(-c2ccc(C(F)(F)F)cn2)[nH]1)c1nc(CO)cs1` had an EC50 in assay [2] of 0.3 µM. The half-maximal cytotoxic concentration (CC50) with TZM amounted to 124 µM. In addition, the IC50 in assay [1] was determined as 2.8 µM.
